This note sets out measurements from patent US20220041606A1, “POSITIVE ALLOSTERIC MODULATORS OF THE MUSCARINIC ACETYLCHOLINE RECEPTOR M1” (Vanderbilt University, priority 2020, published 2022).

As a reminder, the EC50 is the concentration that produces a half-maximal response. In general, Emax refers to the greatest response seen or fitted, relative to the assay's reference.

Test [1] concerns the target T1, human mAChR M1 (Homo sapiens, UniProt P11229).
T1 construct: host or cells: CHO-K1 cells (ATCC), stably transfected using Lipofectamine2000
T1 sequence (P11229 1-460): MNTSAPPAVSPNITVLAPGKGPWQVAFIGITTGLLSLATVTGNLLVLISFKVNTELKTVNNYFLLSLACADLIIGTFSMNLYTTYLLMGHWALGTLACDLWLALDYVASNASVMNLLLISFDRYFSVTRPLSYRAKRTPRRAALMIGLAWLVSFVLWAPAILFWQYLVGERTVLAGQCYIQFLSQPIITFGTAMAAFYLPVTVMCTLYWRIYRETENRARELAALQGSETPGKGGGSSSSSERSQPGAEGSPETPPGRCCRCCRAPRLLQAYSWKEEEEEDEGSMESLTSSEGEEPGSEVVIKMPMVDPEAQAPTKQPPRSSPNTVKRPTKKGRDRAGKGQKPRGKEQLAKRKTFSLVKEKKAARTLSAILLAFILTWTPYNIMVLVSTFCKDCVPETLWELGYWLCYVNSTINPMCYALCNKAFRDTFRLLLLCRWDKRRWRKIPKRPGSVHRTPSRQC
The test can be described thus: mAChR M1 cell-based functional assay (calcium mobilization), PAM activity: increase in the EC20 acetylcholine response. The conditions noted are these: CHO-K1 cells expressing hM1; potentiation of EC20 acetylcholine response. In a few lines: (§1)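 Fluorescence ratio calcium read-out (Fluo-4 AM, FDSS 6000) in human M1-expressing CHO-K1 cells. Agonist activity taken as concentration-dependent rise after compound addition; potentiation as enhancement of a subsequent EC20 acetylcholine challenge. Curves from 11-point threefold dilutions fitted by four-parameter logistic; Emax expressed versus acetylcholine maximum.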
(Calcium flux is commonly read through the fluorescence of an indicator in the cells.)

Test [2] concerns the target T1, human mAChR M1. The experiment in a line: mAChR M1 cell-based functional assay (calcium mobilization), agonist activity upon compound addition. The conditions noted are these: CHO-K1 cells expressing hM1; for EC50: compound alone, before acetylcholine addition; for Emax: relative to the maximum for acetylcholine. In a few lines: as §1

Regarding `Cc1cnn(C)c1-c1ccc(Cn2cc(C(=O)N[C@H]3CCOC[C@@H]3O)c3nccn3c2=O)c(F)c1` [Compound B34, 6-(4-(1,4-dimethyl-1H-pyrazol-5-yl)-2-fluorobenzyl)-N-((3R,4S)-3-hydroxytetrahydro-2H-pyran-4-yl)-5-oxo-5,6-dihydroimidazo[1,2-c]pyrimidine-8-carboxamide], the EC50 is at least 10 µM in test [1] and over 10 µM in test [2]. Further, the Emax in test [1] is 44%; in test [2] it was under 5%.

As to `Cc1cnn(C)c1-c1ccc(Cn2cc(C(=O)N[C@H]3CCCC[C@@H]3O)c3nccn3c2=O)c(F)c1` [Compound B35, 6-(4-(1,4-dimethyl-1H-pyrazol-5-yl)-2-fluorobenzyl)-N-((1S,2S)-2-hydroxycyclohexyl)-5-oxo-5,6-dihydroimidazo[1,2-c]pyrimidine-8-carboxamide], in test [1], the 50% effective concentration (EC50) came to 7.02 µM and the Emax turned out to be 44%. Moreover, in test [2], the 50% effective concentration (EC50) is over 10 µM and the Emax is under 5%.

Take `Cn1nccc1-c1cc(F)c(Cn2cc(C(=O)N[C@H]3CCOC[C@@H]3O)c3nccn3c2=O)c(F)c1` [Compound B36, 6-(2,6-difluoro-4-(1-methyl-1H-pyrazol-5-yl)benzyl)-N-((3R,4S)-3-hydroxytetrahydro-2H-pyran-4-yl)-5-oxo-5,6-dihydroimidazo[1,2-c]pyrimidine-8-carboxamide]: in test [1], the concentration for a half-maximal effect (EC50) turned out to be 1.25 µM and the maximum response (Emax) was determined as 78%. Moreover, in test [2], the EC50 is over 10 µM and the Emax is under 5%.

With `Cn1ccc(-c2ccc(Cn3cc(C(=O)N[C@H]4CCCC[C@@H]4O)c4ncn(C)c4c3=O)c(F)c2)n1` [Compound C1, 5-(2-Fluoro-4-(1-methyl-1H-pyrazol-3-yl)benzyl)-N-((1S,2S)-2-hydroxycyclohexyl)-3-methyl-4-oxo-4,5-dihydro-3H-imidazo[4,5-c]pyridine-7-carboxamide], in test [1], the half-maximal effective concentration (EC50) worked out at 0.25 µM. Further, the Emax in test [1] was determined as 65%; in test [2], 8%.

For the compound `Cn1ccc(-c2ccc(Cn3cc(C(=O)N[C@H]4CCC[C@@H]4O)c4ncn(C)c4c3=O)c(F)c2)n1` [Compound C2, 5-(2-fluoro-4-(1-methyl-1H-pyrazol-3-yl)benzyl)-N-((1S,2S)-2-hydroxycyclopentyl)-3-methyl-4-oxo-4,5-dihydro-3H-imidazo[4,5-c]pyridine-7-carboxamide], in test [1], the EC50 turned out to be 0.6 µM and the Emax turned out to be 45%. For the same compound, in test [2], the EC50 is over 10 µM and the maximum response (Emax) is under 5%.

Regarding `Cn1ccc(-c2ccc(Cn3cc(C(=O)N[C@H]4CCCCC[C@@H]4O)c4ncn(C)c4c3=O)c(F)c2)n1` [Compound C3, 5-(2-fluoro-4-(1-methyl-1H-pyrazol-3-yl)benzyl)-N-((1S,2S)-2-hydroxycycloheptyl)-3-methyl-4-oxo-4,5-dihydro-3H-imidazo[4,5-c]pyridine-7-carboxamide], in test [1], the half-maximal effective concentration (EC50) stood at 0.31 µM and the Emax came out at 60%. In addition, in test [2], the 50% effective concentration (EC50) is over 10 µM and the Emax was under 5%.

On to `Cn1cc2c(-c3cc(F)c(Cn4cc(C(=O)N[C@H]5CCOC[C@@H]5O)c5ncn(C)c5c4=O)c(F)c3)cccc2n1` [Compound C4, 5-(2,6-difluoro-4-(2-methyl-2H-indazol-4-yl)benzyl)-N-((3R,4S)-3-hydroxytetrahydro-2H-pyran-4-yl)-3-methyl-4-oxo-4,5-dihydro-3H-imidazo[4,5-c]pyridine-7-carboxamide], for which, in test [1], the 50% effective concentration (EC50) came out at 0.31 µM and the Emax is 58%. For the same compound, in test [2], the EC50 is over 10 µM and the Emax is under 5%.

On to `Cn1cnc2c(C(=O)N[C@H]3CCCC[C@@H]3O)cn(Cc3ccc(-n4cccn4)cc3)c(=O)c21` [Compound C6, 5-(4-(1H-pyrazol-1-yl)benzyl)-N-((1S,2S)-2-hydroxycyclohexyl)-3-methyl-4-oxo-4,5-dihydro-3H-imidazo[4,5-c]pyridine-7-carboxamide], for which, in test [1], the half-maximal effective concentration (EC50) came to 0.17 µM and the Emax amounted to 43%. Moreover, in test [2], the EC50 was over 10 µM and the maximal response (Emax) is under 5%.

On to `CC1(C)COCCC1NC(=O)c1cn(Cc2ccc(-n3cccn3)cc2)c(=O)c2ccoc12` (stereo not drawn) [Compound D1, 5-(4-(1H-pyrazol-1-yl)benzyl)-N-(3,3-dimethyltetrahydro-2H-pyran-4-yl)-4-oxo-4,5-dihydrofuro[3,2-c]pyridine-7-carboxamide], for which the EC50 in test [1] and in test [2] was over 10 µM throughout. Besides, the Emax in test [1] was 25%; in test [2] it was under 5%.

As to `O=C(N[C@H]1CCOC[C@@H]1O)c1cn(Cc2ccc(-n3cccn3)cc2)c(=O)c2ccoc12` [Compound D2, 5-(4-(1H-pyrazol-1-yl)benzyl)-N-((3R,4S)-3-hydroxytetrahydro-2H-pyran-4-yl)-4-oxo-4,5-dihydrofuro[3,2-c]pyridine-7-carboxamide], in test [1], the EC50 is over 10 µM and the maximal effect (Emax) amounted to 57%. In test [2], the EC50 was over 10 µM and the Emax is under 5%.

Regarding `O=C(N[C@H]1CCCC[C@@H]1O)c1cn(Cc2ccc(-n3cccn3)cc2)c(=O)c2ccoc12` [Compound D3, 5-(4-(1H-pyrazol-1-yl)benzyl)-N-((1S,2S)-2-hydroxycyclohexyl)-4-oxo-4,5-dihydrofuro[3,2-c]pyridine-7-carboxamide], in test [1], the EC50 came to 5.12 µM and the Emax amounted to 62%. Also, in test [2], the concentration for a half-maximal effect (EC50) is over 10 µM and the Emax is under 5%.

As to `O=C(N[C@H]1CCC[C@@H]1O)c1cn(Cc2ccc(-n3cccn3)cc2)c(=O)c2ccoc12` [Compound D4, 5-(4-(1H-pyrazol-1-yl)benzyl)-N-((1S,2S)-2-hydroxycyclopentyl)-4-oxo-4,5-dihydrofuro[3,2-c]pyridine-7-carboxamide], in test [1], the EC50 is over 10 µM and the Emax was found to be 34%. In test [2], the EC50 is over 10 µM and the Emax is under 5%.

Take `O=C(N[C@H]1CCCCC[C@@H]1O)c1cn(Cc2ccc(-n3cccn3)cc2)c(=O)c2ccoc12` [Compound D5, 5-(4-(1H-pyrazol-1-yl)benzyl)-N-((1S,2S)-2-hydroxycycloheptyl)-4-oxo-4,5-dihydrofuro[3,2-c]pyridine-7-carboxamide]: in test [1], the EC50 was over 10 µM and the maximum response (Emax) was determined as 58%. For the same compound, in test [2], the half-maximal effective concentration (EC50) is over 10 µM and the maximum response (Emax) was under 5%.

For `Cn1ccc(-c2ccc(Cn3cc(C(=O)N[C@H]4CCOC[C@@H]4O)c4occc4c3=O)c(F)c2)n1` [Compound D6, 5-(2-fluoro-4-(1-methyl-1H-pyrazol-3-yl)benzyl)-N-((3R,4S)-3-hydroxytetrahydro-2H-pyran-4-yl)-4-oxo-4,5-dihydrofuro[3,2-c]pyridine-7-carboxamide], the 50% effective concentration (EC50) in test [1] and in test [2] was over 10 µM throughout. The maximal response (Emax) is 68% in test [1] and under 5% in test [2].

`Cn1ccc(-c2ccc(Cn3cc(C(=O)N[C@H]4CCCC[C@@H]4O)c4occc4c3=O)c(F)c2)n1` [Compound D7, 5-(2-fluoro-4-(1-methyl-1H-pyrazol-3-yl)benzyl)-N-((1S,2S)-2-hydroxycyclohexyl)-4-oxo-4,5-dihydrofuro[3,2-c]pyridine-7-carboxamide]: in test [1], the EC50 worked out at 6.05 µM and the Emax was determined as 82%. In test [2], the 50% effective concentration (EC50) was over 10 µM and the maximal effect (Emax) is under 5%.

For `Cn1ccc(-c2ccc(Cn3cc(C(=O)N[C@H]4CCC[C@@H]4O)c4occc4c3=O)c(F)c2)n1` [Compound D8, 5-(2-Fluoro-4-(1-methyl-1H-pyrazol-3-yl)benzyl)-N-((1S,2S)-2-hydroxycyclopentyl)-4-oxo-4,5-dihydrofuro[3,2-c]pyridine-7-carboxamide], in test [1], the concentration for a half-maximal effect (EC50) came to 5.13 µM and the Emax is 32%. Besides, in test [2], the concentration giving a half-maximal response (EC50) was over 10 µM and the Emax is under 5%.

Turning to `Cn1ccc(-c2ccc(Cn3cc(C(=O)N[C@H]4CCCCC[C@@H]4O)c4occc4c3=O)c(F)c2)n1` [Compound D9, 5-(2-fluoro-4-(1-methyl-1H-pyrazol-3-yl)benzyl)-N-((1S,2S)-2-hydroxycycloheptyl)-4-oxo-4,5-dihydrofuro[3,2-c]pyridine-7-carboxamide], in test [1], the half-maximal effective concentration (EC50) was found to be 3.09 µM and the maximal response (Emax) is 80%. In addition, in test [2], the EC50 is over 10 µM and the maximal response (Emax) is under 5%.

In the case of `Cn1ccc(-c2ccc(Cn3cc(C(=O)NC4CC5(COC5)C4)c4occc4c3=O)c(F)c2)n1` [Compound D10, 5-(2-fluoro-4-(1-methyl-1H-pyrazol-3-yl)benzyl)-4-oxo-N-(2-oxaspiro[3.3]heptan-6-yl)-4,5-dihydrofuro[3,2-c]pyridine-7-carboxamide], the concentration giving a half-maximal response (EC50) in test [1] and in test [2] was over 10 µM each time. The Emax in test [1] was 25%; in test [2] it was under 5%.

Regarding `Cn1ccc(-c2ccc(Cn3cc(C(=O)NC4CCOC(C)(C)C4)c4occc4c3=O)c(F)c2)n1` (stereo not drawn) [Compound D11, N-(2,2-dimethyltetrahydro-2H-pyran-4-yl)-5-(2-fluoro-4-(1-methyl-1H-pyrazol-3-yl)benzyl)-4-oxo-4,5-dihydrofuro[3,2-c]pyridine-7-carboxamide], the EC50 in test [1] and in test [2] was over 10 µM in each case. The maximal effect (Emax) in test [1] is 24%; in test [2], under 5%.
